Data reported in US9724351B2, “Compounds for the treatment of paramoxyvirus viral infections” (priority 2012, dated 2017).

Assays:
[1] = tested on: Respiratory Syncytial Virus (RSV) long strain (ATCC#VR-26); assay: RSV Antiviral Assay (CPE reduction assay); format: cell-based; settings: human respiratory syncytial virus, 120 h; HEp-2 cells infected with RSV long strain, 5 days, CCK-8 readout; bins (Table 2: less than 1 μM; Table 3: equal to or higher than 1 μM and less than 50 μM); read-out: 50% effective concentration (EC50)
Outline: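 HEp-2 cells infected with 100 TCID50 RSV long strain per well, compounds from 100 μM or 1 μM in 9-point ⅓ dilutions, duplicates, 1% DMSO. After 5 days at 37 °C, viable cells measured by CCK-8 (A450, 630 nm background); EC50 by regression on mean O.D.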

[2] = Cytotoxicity Determination; format: cell-based; settings: human, HEp-2 cells, without addition of virus, CCK-8 readout, bins (Table 4: greater than 100 μM; Table 5: equal to or less than 100 μM and greater than 10 μM), read-out: 50% cytotoxicity concentration (CC50)
Outline: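 Uninfected cells were exposed to compounds in duplicate over a 7-point ½ dilution series starting at 100 μM final, for 5 days at 37 °C, 5% CO2. CCK-8 was then added for 3-4 h, and CC50 was calculated from optical density.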

| Compound | EC50 [1] [µM] | CC50 at 5 days [2] [µM] |
| --- | --- | --- |
| COCC/C(=N/NC(=O)CNC(=O)c1ccc(OC)c(OC)c1)c1csc2ccccc12 [Compound 494] | < 1 | > 100 |
| COc1cc(C(=O)NC(C)C(=O)c2ccc(OC)c(-c3csc4c(F)cccc34)n2)ccc1OCCO (centres unmarked) [Compound 1808] | < 1 | 10 to 100 |
| COc1cc(C(=O)NCC(=O)c2ccc(OC(F)(F)F)c(-c3csc4c(F)cccc34)n2)ccc1OCCO [Compound 2107] | 1 to 50 | 10 to 100 |
| COc1ccc(C(=O)NCC(=O)c2cc(CC(C)C)cc(-c3csc4c(F)cccc34)n2)cc1OC [Compound 1239] | 1 to 50 | > 100 |
| COc1ccc(C(=O)NCC(=O)c2cc(N(C)C)cc(-c3csc4c(F)cccc34)n2)cc1OC [Compound 1221] | < 1 | > 100 |
| COc1cc(C(=O)N[C@@H](CCO)C(=O)c2ccc(OC)c(-c3csc4c(F)cccc34)n2)ccc1OCCO [Compound 1803] | < 1 | 10 to 100 |
| COc1ccc(C(=O)NCC(=O)NN=C(c2ccccn2)c2ccccn2)cc1OC [Compound 441] | 1 to 50 | > 100 |
| COc1ccc(C(=O)NCC(=O)c2ccnc(-c3csc4c(F)cccc34)c2O)cc1OC [Compound 2102] | 1 to 50 | 10 to 100 |
| COc1cc(C(=O)NCC(=O)c2ccc(OC)c(C3=CS(=O)(=O)c4c(F)cccc43)n2)ccc1OCCO [Compound 1344] | 1 to 50 | 10 to 100 |
| CNc1cc(C(=O)CNC(=O)c2ccc(OC)c(OC)c2)nc(-c2csc3c(F)cccc23)c1 [Compound 1220] | < 1 | > 100 |
| COc1ccc(C(=O)NCC(=O)c2nc(-c3csc4c(F)cccc34)cn2CC(C)C)cc1OC [Compound 1356] | 1 to 50 | > 100 |
| COc1cc(C(=O)NCC(=O)c2ccc(OC)c(-c3ccc(Cl)c(F)c3)n2)ccc1OCCO [Compound 1612] | < 1 | > 100 |
| COc1ccc(C(=O)NCC(=O)N/N=C(/c2csc3ccccc23)C2CC2)cc1OC [Compound 426] | 1 to 50 | 10 to 100 |
| COc1ccc(C(=O)NCC(=O)c2cc(C3CC3)cc(-c3csc4c(F)cccc34)n2)cc1OC [Compound 1249] | 1 to 50 | > 100 |
| CCOc1ccc(C(=O)NCC(=O)N/N=C/c2c[nH]c3c(F)cccc23)cc1OC [Compound 400-27] | 1 to 50 | > 100 |
| COc1ccc(C(=O)NCC(=O)c2ccc3c(n2)-c2c(sc4c(F)cccc24)CO3)cc1OC [Compound 2701] | 1 to 50 | 10 to 100 |
| COc1cc(-c2nc(C(=O)CNC(=O)c3ccc(OCCO)c(OC)c3)ccc2OC)ccc1F [Compound 1329] | < 1 | > 100 |
| COc1cc(C(=O)NCC(=O)c2ccc(OC)c(-c3ccc(F)c(C(F)(F)F)c3)n2)ccc1OCCO [Compound 1614] | < 1 | > 100 |
| COc1cc(NCCC(=O)N(C)/N=C/c2csc3c(F)cccc23)ccc1OCCO [Compound 2305] | 1 to 50 | 10 to 100 |
| COc1ccc(C(=O)NCC(=O)c2ccc(OC)c(-c3ccc(Cl)cc3)n2)cc1OC [Compound 1525] | < 1 | > 100 |

| Compound | EC50 [1] [µM] | CC50 at 5 days [2] [µM] |
| --- | --- | --- |
| CCOc1ccc(C(=O)NCC(=O)N/N=C(\C)c2csc3ccccc23)cc1OC [Compound 502] | < 1 | > 100 |
| COc1ccc(C(=O)NCC(=O)c2cccc(-n3cnc4c(F)cccc43)n2)cc1OC [Compound 2600] | 1 to 50 | 10 to 100 |
| COc1ccc(C(=O)NCC(=O)N/N=C(\C#N)c2ccccc2)cc1OC [Compound 454] | 1 to 50 | > 100 |
| CCN(CC)c1cc(C(=O)NCC(=O)N/N=C(\C)c2csc3ccccc23)ccc1OC [Compound 504] | 1 to 50 | 10 to 100 |
| COc1ccc(C(=O)NCC(=O)c2ccc(OC)c(-c3cn[nH]c3)n2)cc1OC [Compound 1533] | 1 to 50 | > 100 |
| COCC/C(=N/NC(=O)CNC(=O)c1ccc(OCCO)c(OC)c1)c1csc2c(F)cccc12 [Compound 603B] | < 1 | > 100 |
| CNCCOc1ccc(C(=O)NCC(=O)c2ccc(OC)c(-c3ccc(F)c(Cl)c3)n2)cc1OC [Compound 1313] | 1 to 50 | 10 to 100 |
| COc1cc(C(=O)CNC(=O)c2ccc(OC)c(OC)c2)nc(-c2ccc3[nH]nnc3c2)c1 [Compound 1403] | 1 to 50 | > 100 |
| COc1cc(C(=O)NCC(=O)c2ccc(OC)c(-c3ccc(C)cc3)n2)ccc1OCCO [Compound 1606] | < 1 | > 100 |
| COc1ccc(C(=O)NCC(=O)c2ccc(OC)c(-c3c(C)ccnc3Cl)n2)cc1OC [Compound 1511] | 1 to 50 | 10 to 100 |
| COc1ccc(C(=O)NCC(=O)c2ccc(OC)c(-c3c(C)sc4cccnc34)n2)cc1OC [Compound 1502] | 1 to 50 | > 100 |
| CNC(=O)COc1ccc(C(=O)NCC(=O)c2ccc(OC)c(-c3ccc(F)c(Cl)c3)n2)cc1OC [Compound 1321] | 1 to 50 | 10 to 100 |
| CCc1cc(C(=O)CNC(=O)c2ccc(OCCO)c(OC)c2)nc(-c2ccc(F)cc2)c1 [Compound 2109] | < 1 | 10 to 100 |
| COc1cc(C(=O)NCC(=O)c2cccc(-c3csc4c(F)cccc34)n2)ccc1OCCCCO [Compound 1223] | 1 to 50 | 10 to 100 |
| COc1ccc(C(=O)NCC(=O)N2CCC(c3csc4c(F)cccc34)=N2)cc1OC [Compound 1100] | 1 to 50 | 10 to 100 |
| COc1cc(C(=O)NCC(=O)c2ccc(OC)c(-c3csc4ccc(F)cc34)n2)ccc1OCCO [Compound 1609] | < 1 | > 100 |
| C/C(=N\NC(=O)CNC(=O)c1ccc2c(c1)OCCO2)c1csc2ccccc12 [Compound 471] | 1 to 50 | > 100 |
| COc1cc(Br)c(C(=O)NCC(=O)N/N=C(\C)c2csc3ccccc23)cc1OC [Compound 479] | 1 to 50 | 10 to 100 |
| COc1cc(C(=O)NCC(=O)c2cc(C)c(OC)c(-c3csc4c(F)cccc34)n2)ccc1OCCO [Compound 2103] | < 1 | 10 to 100 |
| CCCC/C(=N/NC(=O)CNC(=O)c1ccc(OCC)c(OC)c1)c1csc2c(F)cccc12 [Compound 462B] | < 1 | 10 to 100 |

| Compound | EC50 [1] [µM] | CC50 at 5 days [2] [µM] |
| --- | --- | --- |
| COc1cc(C(=O)NCC(=O)c2ccc(OC)c(-c3c[s+]([O-])c4c(F)cccc34)n2)ccc1OCCO (centres unmarked) [Compound 3302] | < 1 | 10 to 100 |
| COc1cc(C(=O)NCC(=O)c2ccc(OC)c(-c3ccc(F)c(C#N)c3)n2)ccc1OCCO [Compound 1615] | 1 to 50 | > 100 |
| COc1ccc(C(=O)NCC(=O)c2ccc(OC)c(-c3c[nH]nc3C)n2)cc1OC [Compound 1541] | 1 to 50 | > 100 |
| COc1ccc(C(=O)NCC(=O)N/N=C(\C)c2csc3ccccc23)cc1OC [Compound 411] | < 1 | 10 to 100 |
| COc1cccc(/C(=N/NC(=O)CNC(=O)c2ccc(OC)c(OC)c2)C(F)(F)F)c1 [Compound 450] | 1 to 50 | > 100 |
| COc1cc(C(=O)NCC(=O)N/N=C(/CC2CCCCC2)c2csc3c(F)cccc23)ccc1OCCO [Compound 606] | 1 to 50 | 10 to 100 |
| COc1ccc(C(=O)NCC(=O)c2ccc(OC)c(-c3cc(C(=O)NC4CCCCC4)ccc3F)n2)cc1OC [Compound 1514] | 1 to 50 | > 100 |
| COc1ccc(C(=O)NCC(=O)c2c[nH]cc(-c3csc4c(F)cccc34)c2=O)cc1OC [Compound 1337] | 1 to 50 | > 100 |
| COc1ccc(C(=O)NCC(=O)NN=C(c2ccccc2)c2ccccc2)cc1OC [Compound 440] | 1 to 50 | > 100 |
| COc1cc(C(=O)NCC(=O)c2ccc(OC)c(-c3ccc(OC(F)(F)F)cc3)n2)ccc1OCCO [Compound 1602] | < 1 | > 100 |
| CCN(CC)c1ccc(C(=O)NCC(=O)N/N=C(\C)c2csc3ccccc23)cc1OC [Compound 500] | 1 to 50 | > 100 |
| COc1ccc(C(=O)NCC(=O)c2cccc(-c3csc4c(F)cccc34)n2)cc1OC [Compound 1202] | 1 to 50 | > 100 |
| COc1ccc(C(=O)NCC(=O)c2nc(-c3csc4c(F)cccc34)cc(C(C)C)c2OC)cc1OC [Compound 1341] | 1 to 50 | > 100 |
| COc1ccc(C(=O)NCC(=O)c2ccc(OC)c(-c3cncnc3)n2)cc1OC [Compound 1520] | 1 to 50 | > 100 |
| COc1ccc(C(=O)NCC(=O)N/N=C(\C)c2csc3ccc(F)cc23)cc1OC [Compound 422] | 1 to 50 | 10 to 100 |
| COc1cc(C(=O)NCC(=O)c2ccc(OC)c(-c3ccc(F)c(Cl)c3)n2)ccc1OCC(=O)N(C)C [Compound 1322] | < 1 | > 100 |
| COc1ccc(C(=O)NCC(=O)c2ccc(OC)c(-c3csc(C(=O)O)c3)n2)cc1OC [Compound 1537] | 1 to 50 | > 100 |
| COc1ccc(C(=O)NCC(=O)N/N=C(\C)c2ccnc3ccccc23)cc1OC [Compound 449] | 1 to 50 | > 100 |
